The record followed here is ChEMBL document CHEMBL1134261, “Synthesis of anticonvulsive AMPA antagonists: 4-oxo-10-substituted-imidaz” (Bioorg Med Chem Lett, 2001).

A value given as a limit tells only on which side of the number the result lay.

One assay deals with Glutamate NMDA receptor. In words: Displacement of [3H]DCKA from glycine NMDA receptor of rat cortical membranes. The class given is cell membranes, Membrane.
For assay [1], the target named is Glutamate receptor ionotropic, AMPA (Rattus norvegicus, UniProt P19490+P19491+P19492+P19493). The experiment in a line: Displacement of [3H]AMPA from Ionotropic glutamate receptor AMPA of rat cortical membranes. The class given is cell membranes, Membrane.
The species entered for another assay is Xenopus sp. The experiment in a line: Inhibition of currents generated by 50 uM kainate in Xenopus oocytes injected with rat brain mRNA. The class given is functional, organism-based, frog.
Assay [2] relates to Mus musculus. The experiment in a line: In vivo effective dose required to protect 6 male CD1 mice against tonic convulsions following iv administration for a pretreatment time of 60 min. The class given is functional.
Assay [3] has as its system Mus musculus. In words: In vivo effective dose required to protect 6 male CD1 mice against tonic convulsions following ip administration for a pretreatment time of 30 min. The class given is functional.
Assay [4] relates to Mus musculus. The experiment in a line: In vivo effective dose required to protect 6 male CD1 mice against tonic convulsions following iv administration for a pretreatment time of 5 min. It counts as functional.
The subject of assay [5] is Mus musculus. The experiment in a line: In vivo effective dose required to protect 6 male CD1 mice against tonic convulsions following iv administration for a pretreatment time of 30 min. The class given is functional.

Regarding `CC1(CCCCC(=O)O)c2ccccc2-c2nc(O)c3nc(C(=O)O)cn3c21` (configuration not stated), the 50% inhibitory concentration (IC50) at Glutamate NMDA receptor was determined as 134 nM; in assay [1], 242 nM; in the assay listed under Xenopus sp. it was 22 nM. Besides, the figures for the ED50 in the assay on Mus musculus [2], with Mus musculus [3] and in the assay on Mus musculus [4] were 15 mg/kg, 10 mg/kg and 9.5 mg/kg, respectively.
For `O=C(O)c1cn2c3c(nc(O)c2n1)-c1ccccc1C3=O`, the figures for the IC50 (at Glutamate NMDA receptor; in assay [1]; in the assay listed under Xenopus sp.) were 422 nM, 580 nM and 320 nM, respectively.
As for `O=C(O)c1cn2c3c(nc(O)c2n1)-c1ccccc1C3N1CC=CC1=O` (configuration not stated), the IC50 on Glutamate NMDA receptor is 184 nM; in assay [1] it was 23 nM. In addition, the figures for the ED50 in the assay on Mus musculus [3] and in the assay with Mus musculus [4] were 20 mg/kg and 7.7 mg/kg, respectively.
With `O=C(Nc1ccccc1)NC1c2ccccc2-c2nc(O)c3nc(C(=O)O)cn3c21` (configuration not stated), the IC50 at Glutamate NMDA receptor was 18 nM; in assay [1], 159 nM; in the assay filed under Xenopus sp. it was 30 nM. Moreover, in the assay on Mus musculus [3], the ED50 was 80 mg/kg.
Consider `O=C(O)c1cn2c3c(nc(O)c2n1)-c1ccccc1C3`, for which, in the assay listed under Xenopus sp., the IC50 turned out to be 29 nM.
With `O=C(O)c1cn2c3c(nc(O)c2n1)-c1ccccc1C3n1cccc1` (configuration not stated), the ED50 in the assay with Mus musculus [5] is 15 mg/kg; with Mus musculus [2], 17 mg/kg; with Mus musculus [3], 26 mg/kg; in the assay with Mus musculus [4], 10 mg/kg. The values for the IC50 (on Glutamate NMDA receptor; in assay [1]; in the assay filed under Xenopus sp.) were 32 nM, 55 nM and 60 nM, respectively.
Regarding `NC1c2ccccc2-c2nc(O)c3nc(C(=O)O)cn3c21` (configuration not stated), the ED50 with Mus musculus [5] is 25 mg/kg; in the assay with Mus musculus [2], more than 40 mg/kg; in the assay on Mus musculus [3] it was 19 mg/kg; in the assay on Mus musculus [4], 7 mg/kg. The IC50 at Glutamate NMDA receptor came out at 158 nM; in assay [1], 93 nM; in the assay listed under Xenopus sp., 130 nM.
`Oc1nc2c(n3ccnc13)Cc1ccccc1-2`: 1800 nM corresponded to half-maximal inhibition in the assay listed under Xenopus sp. (IC50).
For `O=Nc1c2n3cc(C(=O)O)[nH]c3c(O)nc-2c2ccccc12`, the IC50 at Glutamate NMDA receptor stood at 593 nM; in assay [1], 167 nM; in the assay listed under Xenopus sp., 130 nM. Further, in the assay with Mus musculus [3], the ED50 was more than 80 mg/kg.
In the case of `O=C(O)CCC(=O)NC1c2ccccc2-c2nc(O)c3nc(C(=O)O)cn3c21` (configuration not stated), the ED50 in the assay on Mus musculus [5] was 1.7 mg/kg; with Mus musculus [2], 3 mg/kg; in the assay with Mus musculus [3] it was 2.5 mg/kg; with Mus musculus [4], 1.7 mg/kg. Moreover, the IC50 was 230 nM at Glutamate NMDA receptor, 35 nM in assay [1] and 6 nM in the assay listed under Xenopus sp..
In the case of `O=C(O)CCCO/N=C1\c2ccccc2-c2nc(O)c3nc(C(=O)O)cn3c21`, the results for the IC50 (on Glutamate NMDA receptor; in assay [1]; in the assay listed under Xenopus sp.) were 1400 nM, 44 nM and 5 nM, respectively. For the same compound, the ED50 with Mus musculus [3] was more than 80 mg/kg.
Turning to `O=c1[nH]c2cc(C(F)(F)F)c(N3CCOCC3)cc2n(CP(=O)(O)O)c1=O` [FANAPANEL], the figures for the IC50 on Glutamate NMDA receptor and in the assay listed under Xenopus sp. were more than 10000 nM and 31 nM, respectively. The ED50 with Mus musculus [3] and with Mus musculus [4] was 36 mg/kg throughout.
`O=C(O)[C@@H]1C[C@H]2C[C@@H](CCc3nn[nH]n3)CC[C@H]2CN1` [TEZAMPANEL ANHYDROUS] yielded an IC50 in the assay filed under Xenopus sp. of 233 nM.
As to `O=c1[nH]c2cc(-n3ccnc3)c([N+](=O)[O-])cc2[nH]c1=O` [YM-90K], the ED50 with Mus musculus [5] was 24 mg/kg; in the assay on Mus musculus [2], 40 mg/kg; with Mus musculus [4], 6.2 mg/kg. This compound also showed a concentration for half-maximal inhibition (IC50) in the assay listed under Xenopus sp. of 260 nM.
